Test results: patent US9834581B2, “Cell penetrating peptides for intracellular delivery of molecules” (AADIGEN, LLC, priority 2012, dated 2017)
Like-named read-outs stand apart in the source and are kept apart here. *1 amine or outer side, *2 acyl side, *3 side chain or, on linkers, in order; H or OH if unused. Where a SMILES comes first, the peptide text is derived from it. [ ]: non-standard residue; d: D form. Cysteamide = C(CS[*:3])N[*:1]; βAla = NCCC(=O)O

Assays:
HEK2 = assay: cells; format: cell-based
Method: (§1) Adherent HS68 fibroblasts, HeLa, PC3, CEM-SS, U20S, MCF-7, and HEK2 cell lines (from American Type Culture Collection (ATCC)), as well as MEF and PBMC, were cultured in Dulbecco's Modified Eagle's Medium supplemented with 2 mM glutamine, 1% antibiotics (streptomycin 10,000 μg/ml, penicillin, 10,000 IU/ml) and 10% (w/v) foetal calf serum (FCS), at 37° C. in a humidified atmosphere containing 5% CO2. Stock solutions of VEPEP-4/peptide particles were prepared by complexing 1 μM peptide with VEPEP-4 peptides at a molar ratio of 1/20 for 30 min at 37° C. Lower concentrations of VEPEP-4-carrier/peptide (from 500 nM to 1 μM) were obtained by serial dilution of the stock complexes in PBS, in order to preserve the same VEPEP-4-carrier/peptide ratio. 150,000 cells seeded in a 35 mm dish the day prior transfection, were grown to 60% confluence and overlaid with 200 μl of preformed complexes, incubated for 3-5 min, then 400 μl of DMEM were added. After 30 min. incubation at 37° C., 1 ml of fresh DMEM containing 16% foetal calf serum (FCS) was added in order to reach a final FCS concentration of 10%, without removing the overlay of VEPEP-4/peptide complexes. Cells were returned to the incubator for 24 hrs. For CDK2 derived peptides cell proliferation was monitored after 24 and 48 hrs. For peptide-targeting integrase, HIV proliferation was analyzed on activated PBMC cells after 3 and 5 days. Data reported are an average of 3 or 4 distinct experiments.
(§2) VEPEP-4 peptides have been used for the delivery of different small fluorescent hydrophobic and charged molecules as well as doxorubicin on different cell lines including primary cell lines and challenging cell lines. VEPEP-4 peptides form stable particles with small aromatic molecules including doxorubicin. Effect of VEPEP-4 mediated delivery of doxorubicin has been investigated on cancer cell viability. […] The impact of carrier peptides to improve cellular uptake of small molecule drugs was estimated by following inhibition of proliferation of cancer cells.

Hela [1] = assay: cells
Method: Cells were returned to the incubator for 24 hrs.
Effect of VEPEP-4 mediated delivery of doxorubicin has been investigated on cancer cell viability.

Cyclic peptide (PC4) = assay: Fluorescence titration of VEPEP-4 binding to cyclic peptide cargo
Method: (§3) Fluorescence experiments were performed on a PTI spectrofluorimeter at 25° C. in a NaCl 154 mM buffer. Intrinsic Trp-fluorescence of VEPEP-4 was excited at 290 nm and emission spectrum was recorded between 310 and 400 nm, with a spectral band-pass of 2 and 8 nm for excitation and emission, respectively. FITC-fluorescence of labelled-peptide was excited at 492 nm and emission recorded between 500 and 580 nm. For VEPEP-4/peptide interaction, 0.5 μM of FITC-labelled peptide was titrated by increasing concentrations of VEPEP-4. All measurements were corrected for the dilution and curve fitting were performed by using Grafit software (Erithacus).
(§4) VEPEP-4i (SEQ ID No: 1) and VEPEP-4j (SEQ ID No: 2) peptides form stable complexes with peptides. The binding of cargos to VEPEP-4 was monitored by fluorescence spectroscopy using the both intrinsic Trp group of VEPEP-4 (4 Trp-residues) and extrinsic fluorescently labeled cargoes (using Cy5 or FITC). Curve fitting reveal that VEPEP-4 strongly binds the different cargoes with dissociation constant in the nanomolar range (Table 1 and FIG. 1).

MCF7 [2] = format: cell-based, Human
Method: as §1, §2

[3] = Fluorescence titration of VEPEP-4 binding to small molecule cargo
Method: as §3
VEPEP-4 peptides also form stable particles with small aromatic molecules including daunomycin, Paclitaxel, doxorubicin, porphyrin and charged molecules including nucleotide, nucleoside and peptide-analogue of nucleic acids or fluorescent dyes. The dissociation constant for small hydrophobic molecule ranges between 0.05 to 2 μM, depending on the nature of the dyes and of the peptides.
Binding of small molecule cargoes has been investigated in detail depending on the nature of the SMH. Several hydrophobic and charges molecules have been use (Daunomycin, Paclitaxel, doxorubicin, porphyrin) and charged molecules (nucleotide, nucleoside and fluorescent dyes).

MEF = assay: VEPEP-4 mediated delivery of fluorescently labelled peptide (fluorescence microscopy or FACS); format: cell-based, Mouse; settings: uptake of fluorescently labelled peptide cargo
Method: as §1
(§5) VEPEP-4 peptides have been used for the delivery of different peptides into different cell lines, including primary cell lines, stem cell lines and challenging cell lines. Peptide delivery was monitored using three approaches, fluorescence spectroscopy and monitoring biological responses (anti proliferation and anti viral responses).
(§6) 1—Fluorescently labelled peptide was visualized in the different cell lines using fluorescence microscopy or FACS sorting (Table 3). In most of the cell lines, the uptake of Cy-5 labelled peptides is more than 70% of the cells.

HIV-1LAI = format: cell-based; settings: for IC50: 1LAI
Method: as §1
The anti-HIV activities of the peptides (PC4D, PC4S, PC6D, PC6S) and VEPEP-4/peptides complexes were assayed according to previously described method (Roisin et al, 2004). Phytohemagglutinin-P (PHA-P)-activated peripheral blood mononuclear cells (PBMC) treated by increasing concentrations of peptide (from 100 to 0.1 nM), one hour later, were infected with hundred 50% tissue culture infectious doses (TCID50) per 100,000 cells of the HIV-1-LAI or different resistant strains (Barre-Sinoussi et al, 1983). Viruses were amplified in vitro on PHA-P-activated PBMC. Viral stock was titrated using PHA-P-activated PBMC, and 50% TCID50 were calculated using Kärber's formula (Karber 1931). Samples were maintained throughout the culture, and cell supernatants were collected at day 7 post-infection and stored at −20 C. Viral replication was measured by quantifying RT activity in cell culture supernatants. In parallel, cytotoxicity of the compounds was evaluated in uninfected PHA-P-activated PBMC by colorimetric 3-(4-5 dimethylthiazol-2-yl)2,5 diphenyl tetrazolium bromite (MTT) assay on day 7 (Mossmann 1983). Experiments were performed in triplicate and repeated with another blood donor. […]

CEM-SS = assay: VEPEP-4 mediated delivery of fluorescently labelled peptide (fluorescence microscopy or FACS); format: cell-based, Human; settings: uptake of fluorescently labelled peptide cargo
Method: as §1, §5, §6

HS-68 = assay: as above; format: cell-based, Human; settings: HS-68, uptake of fluorescently labelled peptide cargo
Method: as §1, §5, §6

Hela [4] = assay: as above; format: cell-based, Human; settings: uptake of fluorescently labelled peptide cargo
Method: as §1, §5, §6

PBMC = assay: as above; format: cell-based, Human; settings: uptake of fluorescently labelled peptide cargo
Method: as §1, §5, §6

MCF7 [5] = assay: as above; format: cell-based, Human; settings: MCF7, uptake of fluorescently labelled peptide cargo
Method: as §1, §5, §6

U2OS = assay: as above; format: cell-based, Human; settings: uptake of fluorescently labelled peptide cargo
Method: as §1, §5, §6

Peptide (C4) = assay: Fluorescence titration of VEPEP-4 binding to peptide cargo
Method: as §3, §4

Method for Hela cells: (§7) Adherent HS68 fibroblasts, HeLa, PC3, CEM-SS, U20S, MCF-7, and HEK2 cell lines (from American Type Culture Collection (ATCC)), as well as MEF and PBMC, were cultured in Dulbecco's Modified Eagle's Medium supplemented with 2 mM glutamine, 1% antibiotics (streptomycin 10,000 μg/ml, penicillin, 10,000 IU/ml) and 10% (w/v) foetal calf serum (FCS), at 37° C. in a humidified atmosphere containing 5% CO2. Stock solutions of VEPEP-4/peptide particles were prepared by complexing 1 μM peptide with VEPEP-4 peptides at a molar ratio of 1/20 for 30 min at 37° C. […] 150,000 cells seeded in a 35 mm dish the day prior transfection, were grown to 60% confluence and overlaid with 200 μl of preformed complexes, incubated for 3-5 min, then 400 μl of DMEM were added. After 30 min. incubation at 37° C., 1 ml of fresh DMEM containing 16% foetal calf serum (FCS) was added in order to reach a final FCS concentration of 10%, without removing the overlay of VEPEP-4/peptide complexes. Cells were returned to the incubator for 24 hrs. For CDK2 derived peptides cell proliferation was monitored after 24 and 48 hrs. […] Data reported are an average of 3 or 4 distinct experiments.
Method for MCF7 cells: as §7

Molecule	IC50 (HEK2) [nM]	IC50 (Hela [1]) [nM]	Binding (Cyclic peptide (PC4))	Kd (Cyclic peptide (PC4)) [nM]	IC50 (MCF7 [2]) [nM]	Binding ([3]; cargo Doxorubicin)	Kd ([3]; cargo Doxorubicin) [nM]	Binding ([3]; cargo FAM-guanosine)	Kd ([3]; cargo FAM-guanosine) [nM]	Binding ([3]; cargo porphyrin)	Kd ([3]; cargo porphyrin) [nM]	Efficiency (MEF) [%]	IC50 (HIV-1LAI) [nM]	Efficiency (CEM-SS) [%]	Efficiency (HS-68) [%]	Efficiency (Hela [4]) [%]	Efficiency (PBMC) [%]	Efficiency (MCF7 [5]) [%]	Binding (Peptide (C4))	Kd (Peptide (C4)) [nM]	also measured
CC(=O)NCCC(=O)N[C@@H](Cc1c[nH]c2ccccc12)C(=O)N[C@@H](Cc1ccccc1)C(=O)N[C@@H](CCCNC(=N)N)C(=O)N[C@@H](CC(C)C)C(=O)N[C@@H](CO)C(=O)N[C@@H](CC(C)C)C(=O)N[C@@H](CCCNC(=N)N)C(=O)N[C@@H](Cc1ccccc1)C(=O)N[C@@H](Cc1c[nH]c2ccccc12)C(=O)NCCS [Short 4, X1WFRLSLRFW] (Ac-[βAla]WFRLSLRFW-Cysteamide)	500	600	yes	50 to 100	500	yes	10	yes	70	yes	600	67	0.37 ± 0.1	74	87	58	65	78	yes	10 to 20	Efficiency (U2OS): 65%
CSCC[C@H](NC(=O)[C@H](CCCNC(=N)N)NC(=O)[C@@H](NC(=O)[C@H](CCC(N)=O)NC(=O)[C@H](CCCCN)NC(=O)[C@@H](N)CCCCN)C(C)C)C(=O)N[C@@H](C)C(=O)N[C@@H](Cc1c[nH]cn1)C(=O)N[C@@H](CC(C)C)C(=O)N[C@H](C(=O)N[C@@H](CC(C)C)C(=O)N[C@H](C(=O)O)[C@@H](C)O)C(C)C [C4, KKQVRMAHLVLT] (H-KKQVRMAHLVLT-OH; N-terminus and C-terminus assumed)	–	–	–	–	–	–	–	–	–	–	–	–	–	–	–	–	–	–	–	–	IC50 (MCF7 cells): 60 ± 12 nM; concentration sufficient to block proliferation (MCF7 cells; MCF7, C4 delivered by VEPEP-4): 100 nM; IC50 (Hela cells): 50 ± 15 nM; concentration sufficient to block proliferation (Hela cells; Hela, C4 delivered by VEPEP-4): 100 nM
CC(=O)NCCC(=O)N[C@@H](Cc1c[nH]c2ccccc12)C(=O)N[C@@H](Cc1ccccc1)C(=O)N[C@@H](CCCNC(=N)N)C(=O)N[C@@H](CC(C)C)C(=O)N[C@@H](CO)C(=O)N[C@@H](CC(C)C)C(=O)N[C@@H](CCCNC(=N)N)C(=O)N[C@@H](Cc1ccccc1)C(=O)N[C@@H](Cc1c[nH]c2ccccc12)C(=O)N[C@@H](CCCNC(=N)N)C(=O)NCCS [VEPEP-3j, X1WFRLSLRFWR] (Ac-[βAla]WFRLSLRFWR-Cysteamide)	300	800	yes	50 to 100	200	yes	70	yes	50	yes	500	70	0.17 ± 0.07	65	80	62	80	65	yes	10 to 20	Efficiency (U2OS): 81%
COc1cccc2c1C(=O)c1c(O)c3c(c(O)c1C2=O)C[C@@](O)(C(=O)CO)C[C@@H]3O[C@H]1C[C@H](N)[C@H](O)[C@H](C)O1 [Doxo, doxorubicin, reference compound]	–	–	–	–	–	–	–	–	–	–	–	–	–	–	–	–	–	–	–	–	IC50 (HEK2; HEK2, Free drug, read-out: IC50): 10000 nM; fold more efficient when complexed with VEPEP-4 (HEK2; complexed versus free drug, cancer cells of Table 5): 25 fold; IC50 (Hela [1]; Homo sapiens, HeLa): 25000 nM
CC(=O)NCCC(=O)N[C@@H](Cc1c[nH]c2ccccc12)C(=O)N[C@@H](Cc1c[nH]c2ccccc12)C(=O)N[C@@H](CCCNC(=N)N)C(=O)N[C@@H](CC(C)C)C(=O)N[C@@H](CCCNC(=N)N)C(=O)N[C@@H](CO)C(=O)N[C@@H](Cc1c[nH]c2ccccc12)C(=O)N[C@@H](Cc1ccccc1)C(=O)N[C@@H](CCCNC(=N)N)C(=O)NCCS [Short 3, X1WWRLRSWFR] (Ac-[βAla]WWRLRSWFR-Cysteamide)	1100	1200	yes	50 to 100	900	yes	100	yes	100	yes	700	–	–	–	–	–	–	–	yes	10 to 20	–
TWFTEWFT (Ac-TWFTEWFT-Cysteamide; SMILES CC(=O)N[C@H](C(=O)N[C@@H](Cc1c[nH]c2ccccc12)C(=O)N[C@@H](Cc1ccccc1)C(=O)N[C@H](C(=O)N[C@@H](CCC(=O)O)C(=O)N[C@@H](Cc1c[nH]c2ccccc12)C(=O)N[C@@H](Cc1ccccc1)C(=O)N[C@H](C(=O)NCCS)[C@@H](C)O)[C@@H](C)O)[C@@H](C)O) [PC4S, scrambled peptide, control of PC4D, reference compound]	–	–	–	–	–	–	–	–	–	–	–	–	–	–	–	–	–	–	–	–	anti viral activity (HIV-1LAI; scrambled peptide, PBMC infected by HIV-1LAI): do not show any anti viral activity
CC(=O)NCCC(=O)N[C@@H](Cc1c[nH]c2ccccc12)C(=O)N[C@@H](Cc1c[nH]c2ccccc12)C(=O)N[C@@H](CCCNC(=N)N)C(=O)N[C@@H](CC(C)C)C(=O)N[C@@H](CO)C(=O)N[C@@H](CC(C)C)C(=O)N[C@@H](CCCNC(=N)N)C(=O)N[C@@H](Cc1c[nH]c2ccccc12)C(=O)N[C@@H](Cc1c[nH]c2ccccc12)C(=O)NCCS [VEPEP-3i, X1WWRLSLRWW] (Ac-[βAla]WWRLSLRWW-Cysteamide)	400	1200	yes	50 to 100	500	yes	50	yes	60	yes	400	84	0.24 ± 0.1	70	80	65	80	50	yes	10 to 20	Efficiency (U2OS): 78%
